{"source": "patent US5559129A", "about": "“Indole derivatives” (priority 1995, dated 1996)", "key": {"[1]": {"tested_on": "carotid vascular resistance", "settings": "anaesthetized dog; cited from earlier work"}, "[2]": {"assay": "Solid-state and solubility properties of the α-form of the hydrobromide salt", "type": "physicochemical", "settings": "crystalline α-form of the hydrobromide salt"}, "[3]": {"tested_on": "dog isolated saphenous vein strip", "settings": "antagonist of the vein strip contraction; cited from earlier work"}, "[4]": {"tested_on": "plasma protein extravasation response within the dura mater", "assay": "Inhibition of plasma protein extravasation within the dura mater following unilateral electrical trigeminal ganglion stimulation", "type": "in vivo, guinea pig", "settings": "for minimal effective dose: Cavia porcellus, iv, i.v. in guinea pigs, read-out: M.E.D. (minimally effective dose) for inhibition of plasma protein extravasation", "method": "The active compounds of the present invention are also evaluated via the inhibition of plasma protein extravasation response within the dura mater of guinea pigs following unilateral electrical trigeminal ganglion stimulation. The extent to which they mimic sumatriptan, in terms of both potency and efficacy, is determined in this assay. The procedure is performed on male Hartley guinea pigs (200-250 g, Charles River Laboratories, Wilmington, Mass., U.S.A.) as described in Markowitz et al., J. Neurosci., 7 (12), 4129-4136 (1987) and also in Lee, et al., Brain Reseach, 626, 303-305 (1993). The procedure briefly consists of placing pentobarbitone-anesthetized animals in a stereotaxic frame. ^125 I-BSA (bovine serum albumin) (50 μCi/kg^-1) is first injected into the femoral vein, followed 5 minutes later by drug or vehicle. Bipolar electrodes are then lowered into the trigeminal ganglia, and the right ganglion is stimulated for 5 minutes (1.2 mA, 5 Hz, 5 msec). The animal is then perfused with saline through the left cardiac ventricle and sacrificed, and the dura mater is dissected, weighed, and counted for radioactivity. Cpm/mg wet weight values are determined for the right vs left dura mater, and a ratio for the stimulated vs unstimulated sides is generated for each animal. Unpaired student's t-test is used to statistically compare these ratio values in respective groups treated with vehicle or drug."}}, "data": [{"smiles": "CNS(=O)(=O)Cc1ccc2[nH]cc(CCN(C)C)c2c1", "note": "[Sumatriptan]", "values": [{"measurement": "increase in carotid vascular resistance", "setting": "[1]", "value": "selective increase in carotid vascular resistance"}]}, {"smiles": "Br.CN1CCC[C@@H]1Cc1c[nH]c2ccc(CCS(=O)(=O)c3ccccc3)cc12", "note": "[α-form, (R)-5-(2-phenylsulphonylethyl)-3-(N-methylpyrrolidin-2-ylmethyl)-1H-indole hydrobromide]", "values": [{"measurement": "hygroscopicity", "setting": "[2]", "value": "non-hygroscopic"}, {"measurement": "solid-state stability", "setting": "[2]", "value": "possesses solid-state stability"}, {"measurement": "solubility and dissolution behavior", "setting": "[2]", "value": "acceptable solubility and dissolution behavior"}]}, {"smiles": "CSc1ccc2c(c1)C(N1CCN(C)CC1)Cc1ccccc1S2", "note": "(centres unmarked) [methiothepin]", "values": [{"measurement": "block of the contractile effect by a known serotonin antagonist", "setting": "[3]", "value": "blocked"}]}, {"smiles": "CNS(=O)(=O)Cc1ccc2[nH]cc(C[C@H]3CCCN3C)c2c1", "note": "[Example 5A, (R)-5-(Methylaminosulfonylmethyl)-3-(N-methylpyrrolidin-2-ylmethyl)-1H-indole]", "values": [{"measurement": "minimal effective dose", "setting": "[4]", "value": "1e-06", "unit": "µmol/kg"}]}, {"smiles": "CNS(=O)(=O)Cc1ccc2[nH]cc(C[C@H]3CCCN3)c2c1", "note": "[Example 6A, (R)-5-(Methylaminosulfonylmethyl)-3-(pyrrolidin-2-ylmethyl)-1H-indole]", "values": [{"measurement": "minimal effective dose", "setting": "[4]", "value": "1e-07", "unit": "µmol/kg"}]}, {"smiles": "CN1C[C@H](CNC(=O)OCc2ccccc2)C[C@@H]2c3cccc4c3c(cn4C)C[C@H]21", "note": "[metergoline, reference compound]", "values": [{"measurement": "block of the effect of the drugs by a known serotonin antagonist", "setting": "[4]; antagonist of the inhibition of plasma protein extravasation", "value": "partially blocked"}]}]}
